These compounds were tested against T1, BRD4 proteins (Homo sapiens, UniProt O60885) (assay: Degradation of BRD4 protein in MM.1S cell lines (Western blot densitometry)). Conditions: MM.1S cells, 10 μM, 24 hours.
T1 construct: endogenous in cells; host or cells: MM.1S
Format: cell-based
Protocol: To confirm that the compounds (BRD4 degraders) of Preparation Examples I′ to IV′ reduce the amount of BRD4 proteins, experiments were performed using MM.1S cell lines, which are B cells derived from the blood of multiple myeloma patients.
Specifically, the MM.1S cells were cultured in RPMI-1640 medium supplemented with 10% fetal bovine serum and Penicillin/Streptomycin (100 U/mL), transferred to a 6-well plate, and after 24 hours, the BRD4 degraders were diluted in the culture medium and the cells were treated with 10 μM each. After treatment, the cells were incubated in a C02 incubator for 24 hours. Through protein immunoblotting (Western Blot), the degrading capacity of each compound against BRD4 proteins in cells was confirmed. After cell culture was completed according to the experimental conditions, the cells were collected and centrifuged at 1,800 rpm for 3 minutes. The cells in the precipitate were lysed with RIPA (25 mM Tris-HCl pH 7.6, 150 mM NaCl, 1% NP-40, 1% sodium deoxycholate, 0.1% SDS, 1× Protease Inhibitor Cocktail), 5× sample buffer was added, and then heated at 100° C. for 15 minutes. The prepared sample was electrophoresed with sodium dodecyl sulfate poly acrylamide gel electrophoresis (SDS-PAGE), and then the proteins in the gel were transferred to a PVDF membrane using Trans-Blot Turbo. The membrane was treated with a 5% bovine serum albumin (BSA) solution and blocked at room temperature for 2 hours, and then BRD4 and R-actin antibodies were diluted in the 5% BSA solution to react with the membrane at 4° C. overnight. After washed with PBST (0.5% Tween20) 5 times, horse radish peroxidase (HRP)-conjugated secondary antibodies were diluted in PBST to react at room temperature for 2 hours, and then washed again with a PBST solution 5 times. After enzyme-substrate reaction was carried out using a HRP substrate, a signal was measured with chemi-doc equipment, and the densitometry of a band corresponding to the BRD4 protein detected in the Preparation Example Compounds was quantitatively analyzed. The case when the degrading capacity of each BRD4 degrader was reduced by less than 40% is indicated as +, the case when the degrading capacity was reduced by 40% to 70% (exclusive of 70) is indicated as ++, the case when the degrading capacity was reduced by 70% or more is indicated as +++ in Tables 16 to 19 below. As shown in the following Tables, it was confirmed that the compounds of Preparation Examples I′ to IV′ according to the present invention have excellent degrading capacity.
`COC(=O)c1cc(NC(=O)CCNC(=O)C[C@@H]2N=C(c3ccc(Cl)cc3)c3c(sc(C)c3C)-n3c(C)nnc32)ccc1C#CCN.Cl` [4-126′, methyl (S)-2-(3-aminoprop-1-yn-1-yl)-5-(3-(2-(4-(4-chlorophenyl)-2,3,9-trimethyl-6H-thieno[3,2-f][1,2,4]triazolo[4,3-a][1,4]diazepin-6-yl)acetamido)propanamido)benzoate hydrochloride] was tested, and the “BRD4 degrading capacity (%)” value was “++ (the degrading capacity was reduced by 40% to 70% (exclusive of 70))”.
`Cc1sc2c(c1C)C(c1ccc(Cl)cc1)=N[C@@H](CC(=O)NCC#Cc1ccc(C#CCN)cc1)c1nnc(C)n1-2.Cl` [4-128′] was tested, and the “BRD4 degrading capacity (%)” value was “++ (the degrading capacity was reduced by 40% to 70% (exclusive of 70))”.
`Cc1sc2c(c1C)C(c1ccc(Cl)cc1)=N[C@@H](CC(=O)NCC#Cc1cccc(C#CCN)c1)c1nnc(C)n1-2.Cl` [4-129′, (S)—N-(3-(3-(3-aminoprop-1-yn-1-yl)phenyl)prop-2-yn-1-yl)-2-(4-(4-chlorophenyl)-2,3,9-trimethyl-6H-thieno[3,2-f][1,2,4]triazolo[4,3-a][1,4]diazepin-6-yl)acetamide hydrochloride] was tested, and the “BRD4 degrading capacity (%)” value was “+++ (the degrading capacity was reduced by 70% or more)”.
In the case of `Cc1sc2c(c1C)C(c1ccc(Cl)cc1)=N[C@@H](CC(=O)NCCC#Cc1ccc(C#CCCN)o1)c1nnc(C)n1-2.Cl` [4-147′, (S)—N-(4-(5-(4-aminobut-1-yn-1-yl)furan-2-yl)but-3-yn-1-yl)-2-(4-(4-chlorophenyl)-2,3,9-trimethyl-6H-thieno[3,2-f][1,2,4]triazolo[4,3-a][1,4]diazepin-6-yl)acetamide hydrochloride], the “BRD4 degrading capacity (%)” value is reported as “++ (the degrading capacity was reduced by 40% to 70% (exclusive of 70))”.
With `Cc1sc2c(c1C)C(c1ccc(Cl)cc1)=N[C@@H](CC(=O)NCC#CCNC(=O)c1ccc(C#CCN)o1)c1nnc(C)n1-2.Cl` [4-148′, (S)-5-(3-aminoprop-1-yn-1-yl)-N-(4-(2-(4-(4-chlorophenyl)-2,3,9-trimethyl-6H-thieno[3,2-f][1,2,4]triazolo[4,3-a][1,4]diazepin-6-yl)acetamido)but-2-yn-1-yl)furan-2-carboxamide hydrochloride] the “BRD4 degrading capacity (%)” value was “+ (the degrading capacity of each BRD4 degrader was reduced by less than 40%)”.
`Cc1sc2c(c1C)C(c1ccc(Cl)cc1)=N[C@@H](CC(=O)NCCCCNC(=O)c1ccc(C#CCN)o1)c1nnc(C)n1-2.Cl` [4-149′] was tested, and the “BRD4 degrading capacity (%)” value was “+++ (the degrading capacity was reduced by 70% or more)”.
For `Cc1sc2c(c1C)C(c1ccc(Cl)cc1)=N[C@@H](CC(=O)NCCC(=O)Nc1cccc(C#CCN)c1)c1nnc(C)n1-2.Cl` [4-161′, (S)—N-(3-(3-aminoprop-1-yn-1-yl)phenyl)-3-(2-(4-(4-chlorophenyl)-2,3,9-trimethyl-6H-thieno[3,2-f][1,2,4]triazolo[4,3-a][1,4]diazepin-6-yl)acetamido)propanamide hydrochloride], the “BRD4 degrading capacity (%)” value was “+++ (the degrading capacity was reduced by 70% or more)”.
`Cc1sc2c(c1C)C(c1ccc(Cl)cc1)=N[C@@H](CC(=O)NCCCC(=O)Nc1ccc(C#CCN)cc1)c1nnc(C)n1-2.Cl` [4-162′, (S)—N-(4-(3-aminoprop-1-yn-1-yl)phenyl)-4-(2-(4-(4-chlorophenyl)-2,3,9-trimethyl-6H-thieno[3,2-f][1,2,4]triazolo[4,3-a][1,4]diazepin-6-yl)acetamido)butanamide hydrochloride] was tested, and the “BRD4 degrading capacity (%)” value was “+++ (the degrading capacity was reduced by 70% or more)”.
For `Cc1sc2c(c1C)C(c1ccc(Cl)cc1)=N[C@@H](CC(=O)NCCCCC(=O)Nc1ccc(C#CCN)cc1)c1nnc(C)n1-2.Cl` [4-163′, (S)—N-(4-(3-aminoprop-1-yn-1-yl)phenyl)-5-(2-(4-(4-chlorophenyl)-2,3,9-trimethyl-6H-thieno[3,2-f][1,2,4]triazolo[4,3-a][1,4]diazepin-6-yl)acetamido)pentanamide hydrochloride], the “BRD4 degrading capacity (%)” value was “+++ (the degrading capacity was reduced by 70% or more)”.

Source: patent publication US20240425517A1, “NOVEL COMPOUND FOR DEGRADATION OF TARGET PROTEIN OR POLYPEPTIDE BY POLYUBIQUITINATION” (PRAZER THERAPEUTICS INC., priority 2021, published 2024)
